Assay results as given in patent publication US20110117171A1, “IMPLANTABLE BONE GRAFT MATERIALS” (AFFINERGY, INC., priority 2009, published 2011).
Ends that are not written are not given here. spacer = not defined here

What was measured:
human MSCs [1] = assay: Capture of MSCs from a mixed cell population with peptide on CELLECTION magnetic beads; format: cell-based; settings: starting mixture 38% IM9, 56% U937, 4% MSC; FIG. 17C
Excerpt: In this experiment, biotinylated cell binding peptide, SEQ ID NO: 16, was attached to CELLECTION magnetic beads. The CELLECTION beads have streptavidin coupled to a magnetic particle through a DNA linker. Three different cell types, human MSCs, IM-9, and U937 cells were differentially labeled with […] dye and mixed in a ratio such that the MSCs represented ˜4% of the starting cell mixture (the percentage of each cell type in the starting mixture was 38% IM9, 56% U937, and 4% MSC). The cell binding peptide, SEQ ID NO: 16, was biotinylated as described herein at Example 2, as was a general cell binding peptide for use as a control peptide in the experiment. Magnetic particles with no peptide attached, as well as magnetic beads having attached either the cell binding peptide, SEQ ID NO: 16, or the control peptide were tested for their ability to capture human MSCs. The starting cell mixture was incubated with magnetic beads having either attached peptide or no peptide, the beads were washed, and the captured cells were released from the beads by DNase treatment. The cells were measured by flow cytometry histograms shown in 17A-17C. The magnetic beads without peptide captured little or no cells (FIG. 17B). The magnetic beads with attached cell binding peptide SEQ ID NO: 16 captured a cell population that was 96% MSCs (FIG. 17C).

human ASCs = assay: Biotinylated peptide cell binding specificity by flow cytometry (Neutravidin-PE); settings: 30 min at 4° C., FIG. 15
Excerpt: (§1) The synthetic biotinylated cell binding peptide SEQ ID NO: 4 was examined for its ability to specifically bind MSCs compared to a number of other cells types including adipose-derived mesenchymal stem cells (ASCs), dermal fibroblasts, rodent MSCs, red blood cells, monocytes, lymphocytes and granulocytes. The cell binding peptide was biotinylated as described herein at Example 2. Cultured cells of each type were either purchased (ASCs and dermal fibroblasts) or isolated from rodent bone marrow (rodent MSCs) or human blood. Cells were first harvested and resuspended at 10^6/mL in PBS+2% fetal bovine serum (FBS). An aliquot of cells (50 μL) was incubated in 50 μL of peptide solution (25 μM in PBS+FBS) for 30 min at 4° C. Cells were then washed twice in PBS+FBS with 300×g centrifugation for 5 min between washes. Fluorescently-tagged neutravidin (Neutravidin-PE from INVITROGEN) was then added to the cells to label biotinylated peptide bound to cells. Neutravidin-PE was diluted 1:250 from stock and applied at 50 μL to cells. Cells were then washed in PBS+FBS, and acquired on a BD […]. Peptide reactivity was then measured as percent positivity relative to Neutravidin-PE staining without the addition of biotinylated peptide.

human MSCs [2] = assay: as above; settings: 30 min at 4° C., FIG. 15
Excerpt: as §1

dermal fibroblasts = assay: as above; design: species or system human; settings: 30 min at 4° C., FIG. 15
Excerpt: as §1

[3] = test system: human MSCs from bone marrow aspirate; assay: Capture of cultured MSCs with biotinylated peptide on […] streptavidin microbeads in LS columns; format: cell-based; settings: 160,000 cultured human MSCs, peptide 20 μM on streptavidin microbeads, FIG. 16
Protocol: In this experiment the ability of the biotinylated cell binding peptide SEQ ID NO: 4 to capture human MSCs from a homogeneous cultured cell population was examined. The cell binding peptide SEQ ID NO: 4 was biotinylated as described herein at Example 2. The cell binding peptide SEQ ID NO: 4, and a non-binding control peptide, were added to separate 300 μl volumes of […] BIOTEC Streptavidin microbeads at a concentration of 20 μM. These beads are made from iron filings, coated with a dextran coating which is functionalized with streptavidin moieties. Peptide was incubated with beads for 45 min on ice. The 300 μl of peptide coated microbeads were added to pre-equilibrated LS columns outside of the magnetic field to evenly distribute the magnetic beads throughout the columns. Columns were then placed into a magnetic field, and excess peptide was washed away with buffer while retaining the peptide coated microbeads. Cultured and expanded human MSCs from bone marrow aspirate (160,000 cells; LONZA) were added to each LS column and allowed to pass through by gravity flow. Flowthrough was collected and cycled through the columns 5 times, after which the columns were washed with 5 ml buffer. […] The collected flowthrough with 5 ml wash and eluted cells were spun down, resuspended in a smaller volume, and counted by hemacytometer (see FIG. 16). […]

[4] = test system: MSCs directly from bone marrow aspirate; assay: Capture of MSCs from bone marrow aspirate, colony forming units after 14 days; format: cell-based, human; settings: streptavidin-coated MILTENYI beads, FIG. 18
Protocol: (§2) This experiment was performed to examine the ability of cell binding peptide SEQ ID NO: 4 to capture MSCs directly from bone marrow aspirate in comparison to two separate antibodies against the CD105 I antigen (CD105) and the MSCA-1 stem cell antigen (MSCA-1). This experiment employed biotinylated peptides with streptavidin-coated […] magnetic beads. The peptides were biotinylated as described herein at Example 2. […] For the antibody capture experiment, magnetic beads having covalently attached CD105 or MSCA-1 antibody were employed ([…]). Prior to incubation with the peptides and antibodies, bone marrow aspirate (BMA) was mixed with 5 volumes of 10 mM ammonium chloride for 1-2 min at room temperature to lyse red blood cells. The lysate was centrifuged for 5 min at 300×g and the supernatant discarded. The cell pellet was washed with wash buffer (PBS+0.5% bovine serum albumin+0.5 mM EDTA) and cells were resuspended in […] peptide at a concentration of 10^8 per mL. For peptide binding studies, the cell suspension was incubated with the biotinylated peptides for 30 min at 4° C. to allow for binding. After incubation, cells were spun down at 300×g for 5 min, and peptide solution was aspirated. Cells were then rinsed twice with wash buffer, with centrifugation between washes. […] Colony forming units (CFUs) were counted after 14 days in culture. […]

[5] = test system: MSCs captured from bone marrow aspirate; assay: Immunoreactivity of captured cells for surface antigens; format: cell-based, human; settings: CD29(+), CD44(+), CD73(+), CD166(+), CD90(+), CD45(−), CD34(−)
Protocol: as §2

[6] = test system: MSCs captured from bone marrow; assay: Adipocyte differentiation of captured MSCs (Oil Red O); format: cell-based, human; settings: 21 days in adipocyte differentiation medium, FIG. 20 A/B
Protocol: Adipocyte differentiation. After capture of MSCs using cell binding peptide SEQ ID NO: 4 with the […] magnetic system according to Example 6, the ability of the captured cells to differentiate into an adipocyte lineage was examined. The MSCs present in the […] column eluants (see Example 6) were cultured for 21 days in complete medium (DMEM, 10% FBS, 100 units/mL penicillin, 100 μg/mL streptomycin, and 2 mM glutamine) supplemented with 0.5 mM isobutyl methylxanthine, 1 μM dexamethasone, 10 μM insulin, 200 μM indomethacin, and 1% antibiotic/antimycotic. Following the 21 day incubation, the cells were fixed in 4% paraformaldehyde in PBS for 15 minutes, washed in 60% isopropanol for 5 minutes, and stained with Oil Red O (SIGMA) for 10 minutes to determine the extent of adipogenesis (see FIG. 20, panels A (undifferentiated MSCs) and panel B (adipocyte differentiated MSCs)). The image of the adipose differentiated cells (FIG. 20, panel B) contains a larger magnification inset where the lipid vacuoles are clearly visible.

[7] = test system: MSCs captured from bone marrow; assay: Osteoblast differentiation of captured MSCs (Alizarin Red S); format: cell-based, human; settings: 14 days in osteoblast differentiation medium, FIG. 20 C/D
Protocol: Osteoblast differentiation. For osteogenic differentiation, the MSCs present in the […] column eluants (see Example 6) were cultured for 14 days in complete medium supplemented with 0.1 μM dexamethasone, 50 μM ascorbate-2-phosphate, 10 mM β-glycerophosphate, and 1% antibiotic/antimycotic. Calcium mineralization was measured by Alizarin Red S (SIGMA) staining to reveal mineralizing osteoblasts (see FIG. 20, panel C (undifferentiated MSCs) and panel D (osteoblast differentiated MSCs)).

[8] = test system: MSCs captured from bone marrow; assay: Chondrocyte differentiation of captured MSCs (aggrecan immunostaining); format: cell-based, human; settings: 24 days in CHONDRODIFF medium, FIG. 21
Protocol: Chondrocyte differentiation. To examine chondrocyte differentiation, the MSCs present in the […] column eluants (see Example 6) were pelleted by centrifugation at 150×g for 5 minutes. Cells were washed once with 1 ml MACS NH CHONDRODIFF Medium without disturbing the pellet. Cells were spun again and 1 mL CHONDRODIFF Medium was added to each pellet. Every third day, medium was aspirated and replaced with fresh pre-warmed medium. After 24 days in culture, cells exposed to CHONDRODIFF medium formed cartilage plugs or nodules, whereas control cells formed only loose or small nodules. Cells were washed once with PBS and fixed in neutral buffered formalin overnight. Sections were embedded in paraffin and sectioned at 5 microns. Sections were examined by hemotoxylin and eosin staining (data not shown). Sections were further examined by immunostaining for aggrecan, a major structural component of cartilage. In FIG. 21, sections from the periphery (panels A and B) or center (panels C and D) were incubated with an antibody against aggrecan (ABCAM) (panels B and D) or with secondary detection reagents only as a control (panels A and C), then counterstained with DAPI to reveal cell nuclei. […] Control images of captured cells grown in the absence of differentiation medium could not be taken due to the small and loose nature of nodules.

## SSFRFGPLGTWNYPSTDNAE (also: biotin, position not given here, on magnetic beads) [SEQ ID NO: 16, tested biotinylated on CELLECTION magnetic beads]
Human MSCs [1]
  MSCs in captured cell population: 96%

## SSFWDVCQGDGTCYGGGSR (SSFWDVCQGDGTCYGGGSR-{spacer-biotin}; cysteine pairing not given here; reading uncertain; also: C-terminal spacer not given here) [SEQ ID NO: 4, tested biotinylated with a C-terminal spacer]
Human ASCs
  binding to human ASCs (percent positivity relative to Neutravidin-PE staining): high binding
Human MSCs [2]
  binding to human MSCs (percent positivity relative to Neutravidin-PE staining): high binding
Dermal fibroblasts
  binding to dermal fibroblasts (percent positivity relative to Neutravidin-PE staining): high binding
[3]
  capture of the MSCs: approximately 70%
[4]
  MSC capture (CFUs after 14 days in culture): as efficient as capture by either of the CD105 or MSCA-1 antibodies
[5]
  immunoreactivity of isolated cells compared with CD105 isolated cells: no changes were observed
[6]
  adipogenesis of captured MSCs: adipogenesis pathway remains intact
[7]
  osteogenic differentiation of captured MSCs: osteogenic pathway remains intact
[8]
  aggrecan in nodules formed from captured MSCs: aggrecan could be detected
